Reference: US10815276B2, “Cell penetrating peptides and methods of making and using thereof” (Entrada Therapeutics, Inc., priority 2014, dated 2020)
Starred links: 1 amine or outer side, 2 acyl side, 3 side chain; linkers in the order of their positions; H or OH if unused. Positions of bridges follow the written chain, without caps; N, C: chain ends. Non-standard residues stand in square brackets, D forms with d. Residues, ends and D or L forms follow the SMILES beside them. Trimesoyl = O=C(c1cc(C(=O)[*:2])cc(C(=O)[*:3])c1)[*:1]; Phe(3,4-F2) = N[C@@H](Cc1ccc(F)c(F)c1)C(=O)O; dPhe(4-CN) = N#Cc1ccc(C[C@@H](N)C(=O)O)cc1; Phe(4-F) = N[C@@H](Cc1ccc(F)cc1)C(=O)O; dPhe(3-F) = N[C@H](Cc1cccc(F)c1)C(=O)O; 2Nal = N[C@@H](Cc1ccc2ccccc2c1)C(=O)O; Pip = O=C(O)[C@@H]1CCCCN1; Dap = NC[C@H](N)C(=O)O; βAla = NCCC(=O)O; Sar = CNCC(=O)O

Biological target: T1, Pin1 (Homo sapiens, UniProt Q13526, S16A/Y23A)
T1 construct: The full-length human S16A/Y23A mutant Pin1 was expressed and purified from E. coli; made in house
Assay: Pin1 binding by FA (FITC-labeled peptides)
Conditions: for Kd: FITC-labeled peptide, FA, read-out: KD

Compound | Kd [nM] | Improvement of Pin1 binding by D-Phe for D-Ala vs parent peptide (peptide 22 vs 3, peptide 27 vs 4) [fold]
CN1CC(=O)N[C@H](CC(=O)O)C(=O)N2CCCC[C@H]2C(=O)N[C@@H](Cc2ccc3ccccc3c2)C(=O)N[C@@H](CCCNC(=N)N)C(=O)N[C@@H](CCCNC(=N)N)C(=O)N[C@H](CC(=O)O)C(=O)N[C@H]2CNC(=O)c3cc(cc(c3)C(=O)N3CCC[C@H]3C1=O)C(=O)NC[C@@H](C(=O)N[C@@H](CCCCN)C(N)=O)NC(=O)[C@H](CCCNC(=N)N)NC(=O)[C@H](CCCNC(=N)N)NC(=O)[C@H](CCCNC(=N)N)NC(=O)[C@H](CCCNC(=N)N)NC(=O)[C@H](Cc1ccc3ccccc3c1)NC(=O)[C@H](Cc1ccccc1)NC2=O [Peptide 25, bicyclo[Tm-(Pro-Sar-D-Asp-Pip-Nal-Arg-Arg-D-Asp)-Dap-(Phe-Nal-Arg-Arg-Arg-Arg-Dap)]-Lys] (P[Sar][dD][Pip][2Nal]RR[dD][Dap]F[2Nal]RRRR[Dap]K-NH2; linker N-9-16 via Trimesoyl; C-terminus assumed) | 4600 ± 1420 | 
bicyclo[Tm-(D-4-Phe-Fpa-D-homoGlu-Pip-Nal-Arg-Ala-D-Phe)-Dap-(Phe-Nal-Arg-Arg-Arg-Arg-Dap)]-Lys [Peptide 41] | 870 ± 80 | 
CC(C)[C@H]1NC(=O)c2cc3cc(c2)C(=O)NC[C@H](NC(=O)[C@@H](C)NC(=O)[C@H](C)NC(=O)[C@H](CCCNC(=N)N)NC(=O)[C@H](Cc2ccc4ccccc4c2)NC(=O)[C@@H]2CCCCN2C(=O)[C@@H]([C@H](C)O)NC(=O)[C@H](Cc2ccc(F)cc2)NC1=O)C(=O)N[C@@H](Cc1ccccc1)C(=O)N[C@@H](Cc1ccc2ccccc2c1)C(=O)N[C@@H](CCCNC(=N)N)C(=O)N[C@@H](CCCNC(=N)N)C(=O)N[C@@H](CCCNC(=N)N)C(=O)N[C@@H](CCCNC(=N)N)C(=O)N[C@H](C(=O)N[C@@H](CCCCN)C(N)=O)CNC3=O [Peptide 34, bicyclo[Tm-(D-Val-4-Fpa-D-Thr-Pip-Nal-Arg-Ala-D-Ala)-Dap-(Phe-Nal-Arg-Arg-Arg-Arg-Dap)]-Lys] ([dV][Phe(4-F)][dT][Pip][2Nal]RA[dA][Dap]F[2Nal]RRRR[Dap]K-NH2; linker N-9-16 via Trimesoyl; C-terminus assumed) | 1070 ± 160 | 
C[C@@H]1NC(=O)[C@H](CCCNC(=N)N)NC(=O)[C@H](Cc2ccc3ccccc3c2)NC(=O)[C@@H]2CCCCN2C(=O)[C@@H]([C@H](C)O)NC(=O)[C@H](Cc2ccc(F)cc2)NC(=O)[C@@H](Cc2ccc(C#N)cc2)NC(=O)c2cc3cc(c2)C(=O)NC[C@H](NC(=O)[C@@H](Cc2ccccc2)NC1=O)C(=O)N[C@@H](Cc1ccccc1)C(=O)N[C@@H](Cc1ccc2ccccc2c1)C(=O)N[C@@H](CCCNC(=N)N)C(=O)N[C@@H](CCCNC(=N)N)C(=O)N[C@@H](CCCNC(=N)N)C(=O)N[C@@H](CCCNC(=N)N)C(=O)N[C@H](C(=O)N[C@@H](CCCCN)C(N)=O)CNC3=O [Peptide 38, bicyclo[Tm-(D-4-CyanoPhe-Fpa-D-Thr-Pip-Nal-Arg-Ala-D-Phe)-Dap-(Phe-Nal-Arg-Arg-Arg-Arg-Dap)]-Lys] ([dPhe(4-CN)][Phe(4-F)][dT][Pip][2Nal]RA[dF][Dap]F[2Nal]RRRR[Dap]K-NH2; linker N-9-16 via Trimesoyl; C-terminus assumed) | 350 ± 40 | 
C[C@@H]1NC(=O)[C@H](CCCNC(=N)N)NC(=O)[C@H](Cc2ccc3ccccc3c2)NC(=O)[C@@H]2CCCCN2C(=O)[C@@H]([C@H](C)O)NC(=O)[C@H](Cc2ccc(F)c(F)c2)NC(=O)[C@@H](Cc2ccccc2)NC(=O)c2cc3cc(c2)C(=O)NC[C@H](NC(=O)[C@@H](Cc2ccccc2)NC1=O)C(=O)N[C@@H](Cc1ccccc1)C(=O)N[C@@H](Cc1ccc2ccccc2c1)C(=O)N[C@@H](CCCNC(=N)N)C(=O)N[C@@H](CCCNC(=N)N)C(=O)N[C@@H](CCCNC(=N)N)C(=O)N[C@@H](CCCNC(=N)N)C(=O)N[C@H](C(=O)N[C@@H](CCCCN)C(N)=O)CNC3=O [Peptide 29, bicyclo[Tm-(D-Phe-3,4-diFPhe-D-Thr-Pip-Nal-Arg-Ala-D-Phe)-Dap-(Phe-Nal-Arg-Arg-Arg-Arg-Dap)]-Lys] ([dF][Phe(3,4-F2)][dT][Pip][2Nal]RA[dF][Dap]F[2Nal]RRRR[Dap]K-NH2; linker N-9-16 via Trimesoyl; C-terminus assumed) | 410 ± 100 | 
C[C@@H]1NC(=O)[C@H](CCCNC(=N)N)NC(=O)[C@H](Cc2ccc3ccccc3c2)NC(=O)[C@@H]2CCCCN2C(=O)[C@@H](CC(=O)O)NC(=O)CN(C)C(=O)[C@@H]2CCCN2C(=O)c2cc3cc(c2)C(=O)NC[C@H](NC(=O)[C@@H](C)NC(=O)[C@@H](C)NC1=O)C(=O)N[C@@H](Cc1ccccc1)C(=O)N[C@@H](Cc1ccc2ccccc2c1)C(=O)N[C@@H](CCCNC(=N)N)C(=O)N[C@@H](CCCNC(=N)N)C(=O)N[C@@H](CCCNC(=N)N)C(=O)N[C@@H](CCCNC(=N)N)C(=O)N[C@H](C(=O)N[C@@H](CCCCN)C(N)=O)CNC3=O [Peptide 16, bicyclo[Tm-(Pro-Sar-D-Asp-Pip-Nal-Arg-Ala-D-Ala-D-Ala)-Dap-(Phe-Nal-Arg-Arg-Arg-Arg-Dap)]-Lys] (P[Sar][dD][Pip][2Nal]RA[dA][dA][Dap]F[2Nal]RRRR[Dap]K-NH2; linker N-10-17 via Trimesoyl; C-terminus assumed) | 2490 ± 570 | 
C[C@@H]1NC(=O)[C@H](CCCNC(=N)N)NC(=O)[C@H](Cc2ccc3ccccc3c2)NC(=O)[C@@H]2CCCCN2C(=O)[C@@H]([C@H](C)O)NC(=O)[C@H](Cc2ccc(F)cc2)NC(=O)[C@@H](Cc2cccc(F)c2)NC(=O)c2cc3cc(c2)C(=O)NC[C@H](NC(=O)[C@@H](Cc2ccccc2)NC1=O)C(=O)N[C@@H](Cc1ccccc1)C(=O)N[C@@H](Cc1ccc2ccccc2c1)C(=O)N[C@@H](CCCNC(=N)N)C(=O)N[C@@H](CCCNC(=N)N)C(=O)N[C@@H](CCCNC(=N)N)C(=O)N[C@@H](CCCNC(=N)N)C(=O)N[C@H](C(=O)N[C@@H](CCCCN)C(N)=O)CNC3=O [Peptide 36, bicyclo[Tm-(D-3-Fpa-Fpa-D-Thr-Pip-Nal-Arg-Ala-D-Phe)-Dap-(Phe-Nal-Arg-Arg-Arg-Arg-Dap)]-Lys] ([dPhe(3-F)][Phe(4-F)][dT][Pip][2Nal]RA[dF][Dap]F[2Nal]RRRR[Dap]K-NH2; linker N-9-16 via Trimesoyl; C-terminus assumed) | 390 ± 50 | 
C[C@@H]1NC(=O)[C@H](CCCNC(=N)N)NC(=O)[C@H](Cc2ccc3ccccc3c2)NC(=O)[C@@H]2CCCCN2C(=O)[C@@H]([C@H](C)O)NC(=O)[C@H](Cc2ccc(F)cc2)NC(=O)[C@@H](Cc2ccccc2)NC(=O)c2cc3cc(c2)C(=O)NC[C@H](NC(=O)[C@@H](Cc2ccccc2)NC1=O)C(=O)N[C@@H](CCCNC(=N)N)C(=O)N[C@@H](CCCNC(=N)N)C(=O)N[C@@H](Cc1ccc2ccccc2c1)C(=O)N[C@@H](Cc1ccccc1)C(=O)N[C@@H](CCCNC(=N)N)C(=O)N[C@@H](CCCNC(=N)N)C(=O)N[C@H](C(=O)N[C@@H](CCCCN)C(N)=O)CNC3=O [Peptide 43, bicyclo[Tm-(D-Phe-Fpa-D-Thr-Pip-Nal-Arg-Ala-D-Phe)-Dap-(Arg-Arg-Nal-Phe-Arg-Arg-Dap)]-Lys] ([dF][Phe(4-F)][dT][Pip][2Nal]RA[dF][Dap]RR[2Nal]FRR[Dap]K-NH2; linker N-9-16 via Trimesoyl; C-terminus assumed) | 1380 ± 160 | 
C[C@@H]1NC(=O)[C@H](CCCNC(=N)N)NC(=O)[C@H](Cc2ccc3ccccc3c2)NC(=O)[C@@H]2CCCCN2C(=O)[C@@H](CC(=O)O)NC(=O)CN(C)C(=O)[C@@H]2CCCN2C(=O)c2cc3cc(c2)C(=O)NC[C@@H](C(=O)N[C@@H](CCCCN)C(N)=O)NC(=O)[C@H](CCCNC(=N)N)NC(=O)[C@H](CCCNC(=N)N)NC(=O)[C@H](CCCNC(=N)N)NC(=O)[C@H](CCCNC(=N)N)NC(=O)[C@H](Cc2ccc4ccccc4c2)NC(=O)[C@H](Cc2ccccc2)NC(=O)[C@H](CNC3=O)NC(=O)CCNC1=O [Peptide 13, bicyclo[Tm-(Pro-Sar-D-Asp-Pip-Nal-Arg-Ala-β-Ala)-Dap-(Phe-Nal-Arg-Arg-Arg-Arg-Dap)]-Lys] (P[Sar][dD][Pip][2Nal]RA[βAla][Dap]F[2Nal]RRRR[Dap]K-NH2; linker N-9-16 via Trimesoyl; C-terminus assumed) | 2080 ± 310 | 
C[C@@H]1NC(=O)[C@H](CCCNC(=N)N)NC(=O)[C@H](Cc2ccc3ccccc3c2)NC(=O)[C@@H]2CCCCN2C(=O)[C@@H]([C@H](C)O)NC(=O)[C@H](Cc2ccc(F)cc2)NC(=O)[C@@H](Cc2ccccc2)NC(=O)c2cc3cc(c2)C(=O)NC[C@H](NC(=O)[C@@H](Cc2ccccc2)NC1=O)C(=O)N[C@@H](Cc1ccccc1)C(=O)N[C@@H](Cc1ccc2ccccc2c1)C(=O)N[C@@H](CCCNC(=N)N)C(=O)N[C@@H](CCCNC(=N)N)C(=O)N[C@@H](CCCNC(=N)N)C(=O)N[C@@H](CCCNC(=N)N)C(=O)N[C@H](C(=O)N[C@@H](CCCCN)C(N)=O)CNC3=O [Peptide 27, bicyclo[Tm-(D-Phe-4-Fpa-D-Thr-Pip-Nal-Arg-Ala-D-Phe)-Dap-(Phe-Nal-Arg-Arg-Arg-Arg-Dap)]-Lys] ([dF][Phe(4-F)][dT][Pip][2Nal]RA[dF][Dap]F[2Nal]RRRR[Dap]K-NH2; linker N-9-16 via Trimesoyl; C-terminus assumed) | 270 | ~2
C[C@H](O)[C@H]1NC(=O)[C@H](Cc2ccc(F)cc2)NC(=O)[C@@H](Cc2ccccc2)NC(=O)c2cc3cc(c2)C(=O)NC[C@H](NC(=O)[C@@H](C)NC(=O)CNC(=O)[C@H](CCCNC(=N)N)NC(=O)[C@H](Cc2ccc4ccccc4c2)NC(=O)[C@@H]2CCCCN2C1=O)C(=O)N[C@@H](Cc1ccccc1)C(=O)N[C@@H](Cc1ccc2ccccc2c1)C(=O)N[C@@H](CCCNC(=N)N)C(=O)N[C@@H](CCCNC(=N)N)C(=O)N[C@@H](CCCNC(=N)N)C(=O)N[C@@H](CCCNC(=N)N)C(=O)N[C@H](C(=O)N[C@@H](CCCCN)C(N)=O)CNC3=O [Peptide 26, bicyclo[Tm-(D-Phe-4-Fpa-D-Thr-Pip-Nal-Arg-Gly-D-Ala)-Dap-(Phe-Nal-Arg-Arg-Arg-Arg-Dap)]-Lys] ([dF][Phe(4-F)][dT][Pip][2Nal]RG[dA][Dap]F[2Nal]RRRR[Dap]K-NH2; linker N-9-16 via Trimesoyl; C-terminus assumed) | 740 ± 110 | 
bicyclo[Tm-(D-4-Phe-Fpa-D-Nle-Pip-Nal-Arg-Ala-D-Phe)-Dap-(Phe-Nal-Arg-Arg-Arg-Arg-Dap)]-Lys [Peptide 40] | 710 ± 120 | 
